{
  "source": "patent US8937063B2",
  "about": "(Trustees of Tufts College, priority 2010, dated 2015)",
  "key": {"[1]": {"test": "ARI-001 plasma, liver and adipose concentrations correlated with lipid parameters", "type": "in vivo, hamster", "conditions": "18-day study; p<0.01 for each pair", "method": "Plasma from the 19 hamsters dosed with ARI-001 in the above described 18-day study was analyzed for concentrations of ARI-001. Concentrations were determined for these samples, which were collected 24 hours after the final dose was administered. Briefly, plasma drug concentrations for the non-GLP pharmacokinetic experiments were determined by LC-MS using an Applied Biosystems 4000Qtrap spectrometer with electrospray ionization. Samples were prepared for analysis by precipitation of plasma proteins with cold methanol. HPLC of the samples was done with an Agilent Eclipse C18 column and a methanol/water gradient containing 0.1% formic acid and 5 mM ammonium acetate. ARI-001 was detected using multiple reaction monitoring (MRM) in the positive ion mode. For quantitation, a standard curve was measured by addition of known amounts of ARI-001 to plasma from untreated animals and preparing in a manner identical to the samples from treated animals. All plasma samples were spiked with 10 ng/mL of isotope-enriched ARI-001 which served as an internal standard for the LC-MS measurements. […] Pearson r values were determined using all data points, as was the two-tailed P-value for the data set. […]\nFIG. 8 graphs the correlation between concentrations of ARI-001 in plasma versus liver (left), and in plasma versus adipose (right). […] Pearson r was determined using all data points illustrated. […]"}, "[2]": {"test_system": "high fat+fructose (HF/HS) diet hamsters", "test": "FPLC cholesterol subpopulation traces of pooled hamster plasma", "type": "in vivo, male Golden Syrian hamsters", "conditions": "ARI-001 2240 mg/kg 18 days, vs vehicle", "method": "Fast protein liquid chromatography (FPLC) was used to separate the different cholesterol subpopulations from samples of hamster plasma. Briefly, plasma from each animal within a given cohort was pooled together and applied to an AKTA liquid handling system with a Superose 6 10/300 GL column (product #14-5172-01, GE Life Sciences). 250 μL of sample was applied to the injection system, diluted with 5 mL of buffer (100 mM Na2HPO4, 100 mM NaCl, pH 7.5), loaded onto the column, and eluted with 23.5 mL of buffer at a flow rate of 1.0 mL/min, into fractions of size 0.24 mL. Each fraction was individually measured for cholesterol concentration using the total cholesterol kit from Wako as described above with the following modification: sample volume was increased to 30 μL and the reagent volume was decreased to 60 μL.\nFPLC traces produce continuous curves with three distinct peaks, representing each of the cholesterol subpopultions: VLDL, LDL, and HDL. Because the column used in this experiment is a size-exclusion column, the largest particles appear first, while the smallest appear last. […]\nThe measured HDL values were borderline significant (p=0.06) between the 2240 mg/kg ARI-001 group and vehicle. There was a considerable increase in significance when considering the calculated HDL/TC values. […]"}, "[3]": {"test_system": "plasma lipids in animal models", "test": "Summary of lipid efficacy studies in animal models", "type": "in vivo", "excerpt": "A number of pharmacokinetic, safety, and efficacy studies for ARI-001 have been completed in a variety of animals, including mice, rats, Golden Syrian hamsters, dogs, and monkeys. Overall, results from these studies have established the following."}, "[4]": {"test": "Single oral dose pharmacokinetic comparison niacin, ARI-001, 2230C in wild type mice", "type": "in vivo, C57BL/6 mice", "conditions": "single bolus oral gavage, mouse plasma", "excerpt": "Compound 2230C has the structure"}, "ApoAI mRNA": {"test_system": "ApoAI mRNA", "test": "qPCR of liver mRNA in HF/HS hamsters", "type": "in vivo, hamster", "conditions": "ARI-001 2240 mg/kg oral 18 days; relative to mean of vehicle", "excerpt": "(§1) Hamster livers and adipose were preared in manners similar to that described for ARI-001 concentration determination. Briefly, to prepare for analysis, a sample of liver was excised from the frozen mass, weighed, and homogenized with a tissue grinder followed by sonication in buffer. The solid materials were then removed by centrifugation. The resulting lysate was used in qPCR analysis to quantify the specific mRNA measured (vide infra) using primers designed for the specific sequences of interest. All mRNA quantities were normalized to vehicle-treated animal, and mRNA levels were expressed as a fold increase or decrease relative to vehicle-treated. […] During grinding, liquid nitrogen was added to ensure the sample of adipose remained solid. The ground sample was transferred to a tared tube to weigh total sample. This ground sample was treated with buffer and prepared for qPCR to quantify specific mRNA quantities."}, "SR-BI mRNA": {"test_system": "SR-BI mRNA", "test": "qPCR of liver mRNA in HF/HS hamsters", "type": "in vivo, hamster", "conditions": "ARI-001 2240 mg/kg oral 18 days; relative to mean of vehicle", "excerpt": "as §1"}, "ABCA1 mRNA": {"test_system": "ABCA1 mRNA", "test": "qPCR of liver mRNA in HF/HS hamsters", "type": "in vivo, hamster", "conditions": "ARI-001 2240 mg/kg oral 18 days; relative to mean of vehicle", "excerpt": "as §1"}},
  "data": [
    {"smiles": "O=C(O)c1ccc(CCN2CCOCC2)nc1", "note": "[ARI-001]", "values": [
      {"measurement": "correlations of plasma versus liver and plasma versus adipose concentrations", "setting": "[1]", "value": "highly statistically significant"},
      {"measurement": "FPLC HDL curve", "setting": "[2]", "value": "notably larger"},
      {"measurement": "FPLC VLDL and LDL peaks", "setting": "[2]", "value": "considerably decreased compared to vehicle"},
      {"measurement": "plasma lipid changes, once daily vs same total dose twice daily", "setting": "[3]; in vivo", "value": "greater than or equal to the lipid altering effects observed with the same total dose of ARI-001 given twice daily"},
      {"measurement": "lipid altering effects of once-daily dose vs niacin", "setting": "[3]; niacin at nearly 2-fold higher dose once a day", "value": "more pronounced"},
      {"measurement": "AUC", "setting": "[4]; C57BL/6", "value": 1100, "unit": "µM·h"},
      {"measurement": "Cmax", "setting": "[4]; C57BL/6", "value": 309, "unit": "µM"},
      {"measurement": "Tmax", "setting": "[4]; C57BL/6", "value": 22.8, "unit": "min"},
      {"measurement": "half-life", "setting": "[4]; C57BL/6, read-out: half-life (t1/2) (converted)", "value": 85.8, "unit": "min"},
      {"measurement": "AUC (% Niacin)", "setting": "[4]", "value": 9.4, "unit": "% Niacin"},
      {"measurement": "Cmax (% Niacin)", "setting": "[4]", "value": 7.5, "unit": "% Niacin"},
      {"measurement": "Cmax/AUC0-24", "setting": "[4]", "value": 0.28, "unit": "h⁻¹"},
      {"measurement": "Liver ApoAI mRNA per mg tissue", "setting": "ApoAI mRNA", "value": "1.72 ± 0.24", "unit": "fold-change"},
      {"measurement": "Liver SR-BI mRNA per mg tissue", "setting": "SR-BI mRNA", "value": "1.50 ± 0.33", "unit": "fold-change"},
      {"measurement": "Liver ABCA1 mRNA per mg tissue", "setting": "ABCA1 mRNA", "value": "1.54 ± 0.48", "unit": "fold-change"}
    ]}
  ]
}
